Measured values from US6737383B1, “Herbicidal oxadiazolidines” (priority 1999, dated 2004).

What was measured:
morningglory = test: Test B pre/postemergence morningglory; format: in vivo, Ipomoea hederacea
Summary of the method: (§1)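 Herbicidal effect was estimated by eye on a ten-point control scale after plants spent twelve to sixteen days in a greenhouse following soil or foliar treatment. Foliar sprays targeted plants at one to four leaves; all doses were formulated in a non-phytotoxic solvent with surfactant.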

rice = test: Test B flood test rice; format: in vivo, Oryza sativa
Summary of the method: (§2)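 Plants were grown to the 2-leaf stage before treatment with test chemical, then held in a greenhouse for twelve to sixteen days. Injury was visually rated against untreated controls on a 0–10 scale, where 0 is no effect and 10 is complete control.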

giant foxtail = test: Test B pre/postemergence giant foxtail; format: in vivo, Setaria faberii
Summary of the method: as §1

wild oat = test: Test B pre/postemergence wild oat; format: in vivo, Avena fatua
Summary of the method: as §1

bedstraw = test: Test B pre/postemergence bedstraw; format: in vivo, Galium aparine
Summary of the method: as §1

wheat = test: Test B pre/postemergence wheat; format: in vivo, Triticum aestivum
Summary of the method: as §1

smallflower flatsedge = test: Test B flood test smallflower flatsedge; format: in vivo, Cyperus difformis
Summary of the method: as §2

velvetleaf = test: Test B pre/postemergence velvetleaf; format: in vivo, Abutilon theophrasti
Summary of the method: as §1

purple nutsedge = test: Test B pre/postemergence purple nutsedge; format: in vivo, Cyperus rotundus
Summary of the method: as §1

soybean = test: Test B pre/postemergence soybean; format: in vivo, Glycine max
Summary of the method: as §1

duck salad = test: Test B flood test duck salad; format: in vivo, Heteranthera limosa
Summary of the method: as §2

surinam grass = test: Test B pre/postemergence surinam grass; format: in vivo, Brachiaria decumbens
Summary of the method: as §1

cocklebur = test: Test B pre/postemergence cocklebur; format: in vivo, Xanthium strumarium
Summary of the method: as §1

bamyardgrass = test: Test B flood test barnyardgrass; format: in vivo, Echinochloa crus-galli
Summary of the method: as §2

corn = test: Test B pre/postemergence corn; format: in vivo, Zea mays
Summary of the method: as §1

crabgrass = test: Test B pre/postemergence crabgrass; format: in vivo, Digitaria sanguinalis
Summary of the method: as §1

blackgrass = test: Test B pre/postemergence blackgrass; format: in vivo, Alopecurus myosuroides
Summary of the method: as §1

[1] = Preemergence, Rate 62 g/ha, scale of 0 to 10 where 0 is no effect and 10 is complete control
[2] = Preemergence, Rate 125 g/ha, 0 is no effect, 10 is complete control
[3] = Preemergence, Rate 250 g/ha, scale 0 to 10, 0 is no effect, 10 is complete control
[4] = Preemergence, Rate 500 g/ha, scale of 0 to 10 where 0 is no effect and 10 is complete control
[5] = Rate 62 g/ha, Postemergence, scale of 0 to 10 where 0 is no effect and 10 is complete control
[6] = Rate 125 g/ha, Postemergence, scale 0 to 10
[7] = Rate 500 g/ha, Postemergence, scale 0 to 10
[8] = Rate 62 g/ha, headed Pre-emergence (flood test species), scale 0 to 10 (0 no effect, 10 complete control)
[9] = Rate 125 g/ha, Pre-emergence, flood test species, scale 0 to 10 where 0 is no effect and 10 is complete control
[10] = Rate 250 g/ha, Pre-emergence, flood-test species, scale 0 to 10, 0 is no effect, 10 is complete control
[11] = Rate 500 g/ha, headed Pre-emergence (flood test species), scale 0 to 10 (0 no effect, 10 complete control)

C=CCn1c(=O)on(C(=O)N(c2ccc(F)cc2)C2CCC2)c1=O [Compound 194]
9: Plant response rating, Giant foxtail (giant foxtail; [4]) | Crabgrass plant response rating (0 to 10 scale) (crabgrass; [2]) | Crabgrass plant response rating (crabgrass; [3])
3: Giant foxtail plant response rating (giant foxtail; [1]) | Wild oats plant response rating (wild oat; [3]) | Plant response rating, Velvetleaf (velvetleaf; [4]) | Plant response rating, B. signalgrass (surinam grass; [4]) | B. signalgrass plant response rating (surinam grass; Rate 500 g/ha, Postemergence, scale 0 to 10, 0 no effect, 10 complete control) | Blackgrass plant response rating (blackgrass; [3]) | Blackgrass plant response rating (blackgrass; [7])
1: Plant response rating (0 to 10; 0 is no effect, 10 is complete control), Morningglory (morningglory; Rate 250 g/ha, Postemergence) | Giant foxtail plant response rating (giant foxtail; [6]) | Soybean plant response rating (soybean; [7]) | Cocklebur plant response rating (cocklebur; [6])
4: Crabgrass plant response rating (crabgrass; [1])
8: Giant foxtail plant response rating (0 to 10 scale) (giant foxtail; [2]) | Giant foxtail plant response rating (giant foxtail; [3]) | Plant response rating, Wild oats (wild oat; [4]) | Plant response rating, Blackgrass (blackgrass; [4])
0: Morningglory plant response rating (morningglory; [1]) | Morningglory plant response rating (0 to 10 scale) (morningglory; [2]) | Morningglory plant response rating (morningglory; [3]) | Plant response rating, Morningglory (morningglory; [4]) | Morningglory plant response rating (morningglory; [5]) | Morningglory plant response rating (morningglory; [6]) | Rice plant response rating (rice; [8]) | Rice plant response rating (rice; [9]) | Rice plant response rating (rice; [10]) | Plant response rating, Rice (rice; [11]) | Giant foxtail plant response rating (giant foxtail; [5]) | Wild oats plant response rating (wild oat; [1]) | Wild oats plant response rating (wild oat; [5]) | Wild oats plant response rating (wild oat; [6]) | Plant response rating (0 to 10; 0 is no effect, 10 is complete control), Wild oats (wild oat; Rate 250 g/ha, Postemergence) | Bedstraw plant response rating (bedstraw; [1]) | Bedstraw plant response rating (0 to 10 scale) (bedstraw; [2]) | Bedstraw plant response rating (bedstraw; [3]) | Bedstraw plant response rating (bedstraw; [5]) | Bedstraw plant response rating (bedstraw; [6]) | Plant response rating (0 to 10; 0 is no effect, 10 is complete control), Bedstraw (bedstraw; Rate 250 g/ha, Postemergence) | Bedstraw plant response rating (bedstraw; [7]) | Wheat plant response rating (wheat; [1]) | Wheat plant response rating (wheat; [3]) | Wheat plant response rating (wheat; [5]) | Wheat plant response rating (wheat; [6]) | Plant response rating (0 to 10; 0 is no effect, 10 is complete control), Wheat (wheat; Rate 250 g/ha, Postemergence) | S. Flatsedge plant response rating (smallflower flatsedge; [8]) | S. Flatsedge plant response rating (smallflower flatsedge; [9]) | S. Flatsedge plant response rating (smallflower flatsedge; [10]) | S. Flatsedge plant response rating (smallflower flatsedge; Rate 500 g/ha, Pre-emergence, flood test species, scale 0 to 10 (0 no effect, 10 complete control)) | Velvetleaf plant response rating (velvetleaf; [1]) | Velvetleaf plant response rating (velvetleaf; [3]) | Velvetleaf plant response rating (velvetleaf; [5]) | Velvetleaf plant response rating (velvetleaf; [6]) | Plant response rating (0 to 10; 0 is no effect, 10 is complete control), Velvetleaf (velvetleaf; Rate 250 g/ha, Postemergence) | Nutsedge plant response rating (purple nutsedge; [1]) | Nutsedge plant response rating (purple nutsedge; [3]) | Plant response rating, Nutsedge (purple nutsedge; [4]) | Nutsedge plant response rating (purple nutsedge; [5]) | Nutsedge plant response rating (purple nutsedge; [6]) | Plant response rating (0 to 10; 0 is no effect, 10 is complete control), Nutsedge (purple nutsedge; Rate 250 g/ha, Postemergence) | Nutsedge plant response rating (purple nutsedge; [7]) | Soybean plant response rating (soybean; [1]) | Soybean plant response rating (0 to 10 scale) (soybean; [2]) | Soybean plant response rating (soybean; [3]) | Plant response rating, Soybean (soybean; [4]) | Soybean plant response rating (soybean; [5]) | Soybean plant response rating (soybean; [6]) | Plant response rating (0 to 10; 0 is no effect, 10 is complete control), Soybean (soybean; Rate 250 g/ha, Postemergence) | Ducksalad plant response rating (duck salad; [8]) | Ducksalad plant response rating (duck salad; [9]) | Ducksalad plant response rating (duck salad; [10]) | Plant response rating, Ducksalad (duck salad; [11]) | B. signalgrass plant response rating (surinam grass; [1]) | B. signalgrass plant response rating (0 to 10 scale) (surinam grass; [2]) | B. signalgrass plant response rating (surinam grass; [3]) | B. signalgrass plant response rating (surinam grass; [5]) | B. signalgrass plant response rating (surinam grass; Rate 125 g/ha, Postemergence, scale 0 (no effect) to 10 (complete control)) | Plant response rating, B. signalgrass (surinam grass; Rate 250 g/ha, Postemergence, scale 0 to 10, 0 is no effect, 10 is complete control) | Cocklebur plant response rating (cocklebur; [1]) | Cocklebur plant response rating (0 to 10 scale) (cocklebur; [2]) | Cocklebur plant response rating (cocklebur; [3]) | Plant response rating, Cocklebur (cocklebur; [4]) | Cocklebur plant response rating (cocklebur; [5]) | Barnyardgrass plant response rating (bamyardgrass; [8]) | Barnyardgrass plant response rating (bamyardgrass; [9]) | Barnyardgrass plant response rating (bamyardgrass; [10]) | Plant response rating, Barnyardgrass (bamyardgrass; [11]) | Corn plant response rating (corn; [1]) | Corn plant response rating (0 to 10 scale) (corn; [2]) | Corn plant response rating (corn; [3]) | Plant response rating, Corn (corn; [4]) | Corn plant response rating (corn; [5]) | Corn plant response rating (corn; [6]) | Plant response rating (0 to 10; 0 is no effect, 10 is complete control), Corn (corn; Rate 250 g/ha, Postemergence) | Corn plant response rating (corn; [7]) | Crabgrass plant response rating (crabgrass; [5]) | Crabgrass plant response rating (crabgrass; [6]) | Plant response rating (0 to 10; 0 is no effect, 10 is complete control), Crabgrass (crabgrass; Rate 250 g/ha, Postemergence) | Blackgrass plant response rating (blackgrass; [1]) | Blackgrass plant response rating (blackgrass; [5]) | Blackgrass plant response rating (blackgrass; [6])
2: Morningglory plant response rating (morningglory; [7]) | Plant response rating (0 to 10; 0 is no effect, 10 is complete control), Giant foxtail (giant foxtail; Rate 250 g/ha, Postemergence) | Giant foxtail plant response rating (giant foxtail; [7]) | Plant response rating, Wheat (wheat; [4]) | Plant response rating (0 to 10; 0 is no effect, 10 is complete control), Cocklebur (cocklebur; Rate 250 g/ha, Postemergence) | Cocklebur plant response rating (cocklebur; [7]) | Crabgrass plant response rating (crabgrass; [7]) | Blackgrass plant response rating (0 to 10 scale) (blackgrass; [2]) | Plant response rating (0 to 10; 0 is no effect, 10 is complete control), Blackgrass (blackgrass; Rate 250 g/ha, Postemergence)
10: Plant response rating, Bedstraw (bedstraw; [4])
